The source of these data is ChEMBL document CHEMBL1149416, “Design, synthesis, and biological evaluation of BODIPY-erythromycin probes for bacterial ribosomes” (Bioorg Med Chem Lett, 2006).

As usually defined, the IC50 is the midpoint of a concentration-inhibition curve. A lower IC50 goes with greater potency in that assay. For orientation: Kd means the equilibrium constant for the complex coming apart. High values mean a looser complex, low ones a tighter complex.

Assay [1] deals with Escherichia coli. Description: Inhibition of ribosome function in a coupled transcription and translational assay using Escherichia coli S30 extracts. The assay is classed as functional, organism-based.
Assay [2] deals with Escherichia coli. Description: Binding affinity to 70S bacterial ribosome isolated from Escherichia coli. The assay is classed as functional.

The molecule `CC[C@H]1OC(=O)[C@H](C)[C@@H](O[C@H]2C[C@@](C)(OC)[C@@H](O)[C@H](C)O2)[C@H](C)[C@@H](O[C@@H]2O[C@H](C)C[C@H](N(C)C)[C@H]2O)[C@](C)(O)C[C@@H](C)C(=O)[C@H](C)[C@@H](O)[C@]1(C)O` [ERYTHROMYCIN] yielded an IC50 in assay [1] of 80 nM.

In turn, `CC[C@H]1OC(=O)[C@H](C)[C@@H](O[C@H]2C[C@@](C)(OC)[C@@H](OC(=O)NCCNC(=O)CCC3=CC4=Cc5c(C)cc(C)n5[B-](F)(F)[N+]4=C3)[C@H](C)O2)[C@H](C)[C@@H](O[C@@H]2O[C@H](C)C[C@H](N(C)C)[C@H]2O)[C@](C)(O)C[C@@H](C)[C@H](NC(=O)OCc2ccccc2)[C@H](C)[C@@H](O)[C@]1(C)O` yielded a Kd in assay [2] of 1.5 nM. Further, in assay [1], the IC50 is 550 nM. For `CC[C@H]1OC(=O)[C@H](C)[C@@H](O[C@H]2C[C@@](C)(OC)[C@@H](OC(=O)NCCNC(=O)CCC3=CC4=Cc5c(C)cc(C)n5[B-](F)(F)[N+]4=C3)[C@H](C)O2)[C@H](C)[C@@H](O[C@@H]2O[C@H](C)C[C@H](N(C)C)[C@H]2O)[C@](C)(OC)C[C@@H](C)C(=O)[C@H](C)[C@@H](O)[C@]1(C)O`, in that order: below 0.5 nM and 160 nM. Consider `CC[C@H]1OC(=O)[C@H](C)[C@@H](O[C@H]2C[C@@](C)(OC)[C@@H](O)[C@H](C)O2)[C@H](C)[C@@H](O[C@@H]2O[C@H](C)C[C@H](N(C)C)[C@H]2O)[C@](C)(O)C[C@@H](C)[C@H](NC(=O)CCC2=CC3=Cc4c(C)cc(C)n4[B-](F)(F)[N+]3=C2)[C@H](C)[C@@H](O)[C@]1(C)O`, for which binding in assay [2] was characterised by a dissociation constant (Kd) of 30 nM. Further, in assay [1], the IC50 came out at 1500 nM.
